Drawing on patent US8148391B2 (Cephalon, Inc., priority 2006, dated 2012), this text covers IC50 for 22 molecules.

Assay [1] addresses T1, baculovirus-expressed ALK (Homo sapiens, UniProt Q9UM73).
T1 construct: host or cells: baculovirus expression system
In words: ALK Kinase Assay (ELISA-type, time-resolved fluorescence). Format: biochemical. Particulars: 1 μM ATP (Km level), 30 ng/ml ALK, 37° C., 15 minutes; read-out: ALK Activity (ALK kinase inhibition, IC50 class). Put shortly: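 Wells were coated with phospholipase C-γ at 10 μg/mL in Tris-buffered saline. Adding 30 ng/ml enzyme started the reaction, which ran at 37° C for 15 minutes before Eu-N1 PT66 antibody detection. Percent inhibition versus log10 concentration gave IC50 by variable-slope fit.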
On the technique in general: In an ELISA, binding on a coated surface is turned into a signal by an enzyme label.

The target of assay [2] is T2, c-Met (cytoplasmic domain) (Homo sapiens, UniProt P08581).
T2 construct: 10 ng/mL c-Met (cytoplasmic domain, Invitrogen Corporation #PV3143); purchased Invitrogen Corporation PV3143
Briefly: c-Met Kinase Assay (same methods as for ALK, with modifications). Format: biochemical. The following applies: 1 μM ATP (Km level), 10 ng/mL c-Met; read-out: cMet Activity (c-Met kinase inhibition, IC50 class). In outline:
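Steps: coat wells with PLC-γ (10 μg/mL, Tris-buffered saline); add 10 ng/mL c-Met cytoplasmic domain to initiate; incubate 15 min, 37° C; detect phosphoproduct via Eu-N1 PT66 antibody.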

T2 sequence (P08581 956-1390 limits assumed): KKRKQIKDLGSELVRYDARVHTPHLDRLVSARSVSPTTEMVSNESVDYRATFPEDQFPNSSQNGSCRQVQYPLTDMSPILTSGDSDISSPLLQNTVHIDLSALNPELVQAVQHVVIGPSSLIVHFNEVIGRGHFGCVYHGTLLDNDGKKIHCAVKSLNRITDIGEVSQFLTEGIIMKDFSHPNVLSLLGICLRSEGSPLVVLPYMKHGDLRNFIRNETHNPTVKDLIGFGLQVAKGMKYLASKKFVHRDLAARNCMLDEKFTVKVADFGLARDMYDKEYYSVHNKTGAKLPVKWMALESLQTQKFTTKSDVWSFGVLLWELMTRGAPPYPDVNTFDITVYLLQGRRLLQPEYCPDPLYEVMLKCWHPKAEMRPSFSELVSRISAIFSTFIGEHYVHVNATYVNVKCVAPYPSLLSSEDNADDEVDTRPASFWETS
T1 sequence (Q9UM73 19-1620): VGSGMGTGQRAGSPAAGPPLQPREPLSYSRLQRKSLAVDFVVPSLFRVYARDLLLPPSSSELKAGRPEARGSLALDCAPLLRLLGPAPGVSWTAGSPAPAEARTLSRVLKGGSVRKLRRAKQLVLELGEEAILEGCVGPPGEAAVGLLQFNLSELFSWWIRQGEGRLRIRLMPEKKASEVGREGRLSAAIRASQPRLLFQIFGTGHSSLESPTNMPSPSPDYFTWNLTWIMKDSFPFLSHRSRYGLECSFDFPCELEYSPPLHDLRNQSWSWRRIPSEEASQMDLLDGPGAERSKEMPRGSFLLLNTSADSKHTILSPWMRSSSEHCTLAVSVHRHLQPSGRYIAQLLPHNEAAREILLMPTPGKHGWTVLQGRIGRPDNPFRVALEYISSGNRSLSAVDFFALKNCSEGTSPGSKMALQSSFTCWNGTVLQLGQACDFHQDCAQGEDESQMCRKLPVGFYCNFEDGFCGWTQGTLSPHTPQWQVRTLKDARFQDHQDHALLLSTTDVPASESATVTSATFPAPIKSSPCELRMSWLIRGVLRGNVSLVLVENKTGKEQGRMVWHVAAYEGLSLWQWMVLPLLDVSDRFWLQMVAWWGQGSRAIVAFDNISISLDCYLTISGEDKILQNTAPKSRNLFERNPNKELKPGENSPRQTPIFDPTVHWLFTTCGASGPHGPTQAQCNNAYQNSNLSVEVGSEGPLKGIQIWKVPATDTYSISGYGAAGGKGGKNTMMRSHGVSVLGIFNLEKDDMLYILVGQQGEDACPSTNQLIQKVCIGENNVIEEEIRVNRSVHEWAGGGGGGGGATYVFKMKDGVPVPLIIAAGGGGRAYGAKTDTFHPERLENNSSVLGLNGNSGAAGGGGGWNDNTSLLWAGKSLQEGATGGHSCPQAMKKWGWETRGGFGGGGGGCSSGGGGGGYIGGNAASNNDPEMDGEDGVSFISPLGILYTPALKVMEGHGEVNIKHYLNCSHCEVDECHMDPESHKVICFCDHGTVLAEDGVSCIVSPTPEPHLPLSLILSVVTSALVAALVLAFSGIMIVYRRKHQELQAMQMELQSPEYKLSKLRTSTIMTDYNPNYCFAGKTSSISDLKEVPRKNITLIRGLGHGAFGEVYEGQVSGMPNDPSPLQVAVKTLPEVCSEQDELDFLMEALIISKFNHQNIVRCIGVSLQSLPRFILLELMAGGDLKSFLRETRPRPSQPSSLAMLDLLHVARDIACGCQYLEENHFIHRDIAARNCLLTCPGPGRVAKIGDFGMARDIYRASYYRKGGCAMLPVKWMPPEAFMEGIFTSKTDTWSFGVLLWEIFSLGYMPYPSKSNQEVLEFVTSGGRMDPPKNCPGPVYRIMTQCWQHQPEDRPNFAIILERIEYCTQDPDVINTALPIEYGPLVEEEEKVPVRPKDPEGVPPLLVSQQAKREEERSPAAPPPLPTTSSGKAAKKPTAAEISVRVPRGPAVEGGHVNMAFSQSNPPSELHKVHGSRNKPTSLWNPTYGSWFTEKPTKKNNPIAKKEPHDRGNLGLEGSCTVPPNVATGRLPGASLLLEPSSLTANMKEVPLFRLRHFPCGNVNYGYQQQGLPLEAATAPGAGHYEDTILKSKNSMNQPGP

Turning to `CCN1C(=O)CCCc2c1ccc(Nc1ncc(Cl)c(Nc3ccc(N4CCN(C)CC4)cc3OC)n1)c2OC` [Example 1311, 7-{5-Chloro-4-[2-methoxy-4-(4-methyl-piperazin-1-yl)-phenylamino]-pyrimidin-2-ylamino}-1-ethyl-6-methoxy-1,3,4,5-tetrahydro-benzo[b]azepin-2-one], the IC50 – broadly, the point on the concentration scale where inhibition reaches its midpoint – in assay [1] is less than 0.1 µM; in assay [2] it was more than 10 µM.

With `COc1cc2c(cc1Nc1ncc(Cl)c(N[C@H]3[C@@H](C(N)=O)[C@@H]4C=C[C@H]3C4)n1)C(C)(C)CCC(=O)N2` [Example 1312], the IC50 in assay [1] is less than 0.1 µM; in assay [2], more than 10 µM.

Turning to `COc1cc2c(cc1Nc1ncc(Cl)c(N[C@H]3[C@@H](C(N)=O)[C@@H]4C=C[C@H]3C4)n1)C(C)(C)CCC(=O)N2C` [Example 1313, (1S,2S,3R,4R)-3-[5-Chloro-2-(8-methoxy-1,5,5-trimethyl-2-oxo-2,3,4,5-tetrahydro-1H-benzo[b]azepin-7-ylamino)-pyrimidin-4-ylamino]-bicyclo[2.2.1]hept-5-ene-2-carboxylic acid amide], the IC50 in assay [1] is less than 0.1 µM; in assay [2], more than 10 µM.

`CCN1C(=O)CCC(C)(C)c2cc(Nc3ncc(Cl)c(N[C@H]4[C@@H](C(N)=O)[C@@H]5C=C[C@H]4C5)n3)c(OC)cc21` [Example 1314, (1S,2S,3R,4R)-3-[5-Chloro-2-(1-ethyl-8-methoxy-5,5-dimethyl-2-oxo-2,3,4,5-tetrahydro-1H-benzo[b]azepin-7-ylamino)-pyrimidin-4-ylamino]-bicyclo[2.2.1]hept-5-ene-2-carboxylic acid amide]: the half-maximal inhibitory concentration (IC50) in assay [1] was less than 0.1 µM; in assay [2], more than 10 µM.

For `COCCN1CCc2cc(Nc3ncc(Cl)c(N[C@H]4[C@@H](C(N)=O)[C@@H]5C=C[C@H]4C5)n3)c(OC)cc2CC1` [Example 1315, (1S,2S,3R,4R)-3-{5-Chloro-2-[8-methoxy-3-(2-methoxy-ethyl)-2,3,4,5-tetrahydro-1H-benzo[d]azepin-7-ylamino]-pyrimidin-4-ylamino}-bicyclo[2.2.1]hept-5-ene-2-carboxylic acid amide], the IC50 in assay [1] is less than 0.1 µM; in assay [2] it was more than 10 µM.

`CCN1C(=O)CCCc2cc(Nc3ncc(Cl)c(Nc4ccccc4-n4cccn4)n3)c(OC)cc21` [Example 1317, 7-[5-Chloro-4-(2-pyrazol-1-yl-phenylamino)-pyrimidin-2-ylamino]-1-ethyl-8-methoxy-1,3,4,5-tetrahydro-benzo[b]azepin-2-one]: the IC50 in assay [1] is less than 0.1 µM; in assay [2] it was more than 10 µM.

For `CCN1C(=O)CCCc2cc(Nc3ncc(Cl)c(Nc4ccccc4OC)n3)c(OC)cc21` [Example 1318, 7-[5-Chloro-4-(2-methoxy-phenylamino)-pyrimidin-2-ylamino]-1-ethyl-8-methoxy-1,3,4,5-tetrahydro-benzo[b]azepin-2-one], the IC50 in assay [1] is 0.1 to 1 µM; in assay [2] it was more than 10 µM.

For `CCN1C(=O)CCCc2c1ccc(Nc1ncc(Cl)c(Nc3ccccc3-n3cccn3)n1)c2OC` [Example 1319, 7-[5-Chloro-4-(2-pyrazol-1-yl-phenylamino)-pyrimidin-2-ylamino]-1-ethyl-6-methoxy-1,3,4,5-tetrahydro-benzo[b]azepin-2-one], the results for the IC50 in assay [1] and in assay [2] were less than 0.1 µM and more than 10 µM, respectively.

In the case of `COc1cc2c(cc1Nc1ncc(Cl)c(Nc3ccccc3-n3cccn3)n1)CCN(CC(=O)N(C)C)CC2` [Example 1320, 2-{7-[5-Chloro-4-(2-pyrazol-1-yl-phenylamino)-pyrimidin-2-ylamino]-8-methoxy-1,2,4,5-tetrahydro-benzo[d]azepin-3-yl}-N,N-dimethyl-acetamide], the IC50 in assay [1] was less than 0.1 µM; in assay [2] it was more than 10 µM.

Turning to `COCCN1CCc2cc(Nc3ncc(Cl)c(Nc4ccccc4-n4cccn4)n3)c(OC)cc2CC1` [Example 1321, 5-Chloro-N*2*-[8-methoxy-3-(2-methoxy-ethyl)-2,3,4,5-tetrahydro-1H-benzo[d]azepin-7-yl]-N*4*-(2-pyrazol-1-yl-phenyl)-pyrimidine-2,4-diamine], the IC50 in assay [1] is less than 0.1 µM; in assay [2], more than 10 µM.

Take `COCCN1CCc2cc(Nc3ncc(Cl)c(N[C@@H]4[C@H](C(N)=O)[C@H]5C=C[C@@H]4C5)n3)c(OC)cc2CC1` [Example 1322, (1R,2R,3S,4S)-3-{5-Chloro-2-[8-methoxy-3-(2-methoxy-ethyl)-2,3,4,5-tetrahydro-1H-benzo[d]azepin-7-ylamino]-pyrimidin-4-ylamino}-bicyclo[2.2.1]hept-5-ene-2-carboxylic acid amide]: the IC50 in assay [1] was 1 to 10 µM; in assay [2] it was more than 10 µM.

Regarding `CN1C(=O)CCC(C)(C)c2cc(Nc3ncc(Cl)c(Nc4ccccc4-n4cccn4)n3)ccc21` [Example 1323, 7-[5-Chloro-4-(2-pyrazol-1-yl-phenylamino)-pyrimidin-2-ylamino]-1,5,5-trimethyl-1,3,4,5-tetrahydro-benzo[b]azepin-2-one], the figures for the IC50 in assay [1] and in assay [2] were less than 0.1 µM and 0.1 to 1 µM, respectively.

Consider `CN1C(=O)CCC(C)(C)c2cc(Nc3ncc(Cl)c(Nc4ccccc4S(=O)(=O)N(C)C)n3)ccc21` [Example 1325, 2-[5-Chloro-2-(1,5,5-trimethyl-2-oxo-2,3,4,5-tetrahydro-1H-benzo[b]azepin-7-ylamino)-pyrimidin-4-ylamino]-N,N-dimethyl-benzenesulfonamide], for which the IC50 in assay [1] is less than 0.1 µM; in assay [2], 0.1 to 1 µM.

As for `CC(C)S(=O)(=O)c1ccccc1Nc1nc(Nc2ccc3c(c2)C(C)(C)CCC(=O)N3C)ncc1Cl` [Example 1329, 7-{5-Chloro-4-[2-(propane-2-sulfonyl)-phenylamino]-pyrimidin-2-ylamino}-1,5,5-trimethyl-1,3,4,5-tetrahydro-benzo[b]azepin-2-one], the IC50 in assay [1] and in assay [2] was less than 0.1 µM in each case.

On to `CCN1C(=O)C(NC(=O)C(F)(F)F)CCc2c1ccc(Nc1ncc(Cl)c(N[C@H]3[C@@H](C(N)=O)[C@@H]4C=C[C@H]3C4)n1)c2OC` (stereo partly drawn) [Example 1330, (1S,2S,3R,4R)-3-{5-Chloro-2-[1-ethyl-6-methoxy-2-oxo-3-(2,2,2-trifluoro-acetylamino)-2,3,4,5-tetrahydro-1H-benzo[b]azepin-7-ylamino]-pyrimidin-4-ylamino}-bicyclo[2.2.1]hept-5-ene-2-carboxylic acid amide], for which the IC50 in assay [1] is less than 0.1 µM; in assay [2], more than 10 µM.

Consider `CCN1C(=O)C(NC(=O)C(F)(F)F)CCc2c1ccc(Nc1ncc(Cl)c(Nc3ccccc3S(=O)(=O)C(C)C)n1)c2OC` (centres unmarked) [Example 1333, N-(7-{5-Chloro-4-[2-(propane-2-sulfonyl)-phenylamino]-pyrimidin-2-ylamino}-1-ethyl-6-methoxy-2-oxo-2,3,4,5-tetrahydro-1H-benzo[b]azepin-3-yl)-2,2,2-trifluoro-acetamide], for which the figures for the IC50 in assay [1] and in assay [2] were less than 0.1 µM and more than 10 µM, respectively.

On to `CCN1C(=O)C(NC(=O)C(F)(F)F)CCc2c1ccc(Nc1ncc(Cl)c(Nc3ccccc3S(=O)(=O)N(C)C)n1)c2OC` (centres unmarked) [Example 1334, N-{7-[5-Chloro-4-(2-dimethylsulfamoyl-phenylamino)-pyrimidin-2-ylamino]-1-ethyl-6-methoxy-2-oxo-2,3,4,5-tetrahydro-1H-benzo[b]azepin-3-yl}-2,2,2-trifluoro-acetamide], for which the IC50 was less than 0.1 µM in assay [1] and more than 10 µM in assay [2].

Consider `CCN1C(=O)C(NC(=O)C(F)(F)F)CCc2c1ccc(Nc1ncc(Cl)c(N[C@@H]3CCCC[C@H]3NS(C)(=O)=O)n1)c2OC` (stereo partly drawn) [Example 1335, N-{7-[5-Chloro-4-((1R,2R)-2-methanesulfonylamino-cyclohexylamino)-pyrimidin-2-ylamino]-1-ethyl-6-methoxy-2-oxo-2,3,4,5-tetrahydro-1H-benzo[b]azepin-3-yl}-2,2,2-trifluoro-acetamide], for which the IC50 is less than 0.1 µM in assay [1] and more than 10 µM in assay [2].

For the molecule `CCN1C(=O)C(N)CCc2c1ccc(Nc1ncc(Cl)c(Nc3ccccc3S(=O)(=O)N(C)C)n1)c2OC` (centres unmarked) [Example 1336, 2-[2-(3-Amino-1-ethyl-6-methoxy-2-oxo-2,3,4,5-tetrahydro-1H-benzo[b]azepin-7-ylamino)-5-chloro-pyrimidin-4-ylamino]-N,N-dimethyl-benzenesulfonamide], the figures for the IC50 in assay [1] and in assay [2] were less than 0.1 µM and more than 10 µM, respectively.

Regarding `CCN1C(=O)C(N)CCc2c1ccc(Nc1ncc(Cl)c(Nc3ccccc3S(=O)(=O)C(C)C)n1)c2OC` (centres unmarked) [Example 1337, 3-Amino-7-{5-chloro-4-[2-(propane-2-sulfonyl)-phenylamino]-pyrimidin-2-ylamino}-1-ethyl-6-methoxy-1,3,4,5-tetrahydro-benzo[b]azepin-2-one], the IC50 was less than 0.1 µM in assay [1] and more than 10 µM in assay [2].

With `CCN1C(=O)C(N)CCc2c1ccc(Nc1ncc(Cl)c(N[C@@H]3CCCC[C@H]3NS(C)(=O)=O)n1)c2OC` (stereo partly drawn) [Example 1338, N-{(1R,2R)-2-[2-(3-Amino-1-ethyl-6-methoxy-2-oxo-2,3,4,5-tetrahydro-1H-benzo[b]azepin-7-ylamino)-5-chloro-pyrimidin-4-ylamino]-cyclohexyl}-methanesulfonamide], the IC50 in assay [1] is 0.1 to 1 µM; in assay [2], more than 10 µM.

As to `CCN1C(=O)CCCc2c1ccc(Nc1ncc(Cl)c(Nc3ccc(N(C)C)cc3OC)n1)c2OC` [Example 1339, 7-[5-Chloro-4-(4-dimethylamino-2-methoxy-phenylamino)-pyrimidin-2-ylamino]-1-ethyl-6-methoxy-1,3,4,5-tetrahydro-benzo[b]azepin-2-one], the IC50 in assay [1] was 0.1 to 1 µM; in assay [2], more than 10 µM.
